{"source": "patent US20110182982A1", "about": "“LIPOSOME TREATMENT OF VIRAL INFECTIONS” (University of Oxford, priority 2006, published 2011)", "key": {"[1]": {"experiment": "pH sensitivity of DCPP liposomes (calcein leakage)", "type": "physicochemical", "details": "1 mM encapsulated, pH 5.0-7.4, vs calcein only liposomes", "experimental": "DCPP liposomes encapsulating 1-mM DNJ, NB-DNJ, or NN-DNJ in 80-mM calcein buffer were compared with empty (calcein only) liposomes to determine the effects of the alkyl chain of NB-DNJ and NN-DNJ on the pH-sensitivity. 10 μl of calcein-loaded DCPP liposomes (final phospholipid concentration, 5 μM) was added to 2 ml of MES-buffered saline at various pH values ranging from 5.0-7.4, and left to incubate with shaking 15 min at 37° C. Following incubation, calcein fluorescence was measured before and after the addition of Triton to a final concentration of 0.1%. Fluorescence intensities obtained at acidic pH values were corrected for the slight effect of pH on calcein fluorescence. The percentage of calcein release at each pH was calculated using the formula: % leakage=((in−I0)/(I100−I0))×100, where I0 is the fluorescence at neutral pH, In is the corrected intensity at acidic pH before the addition of Triton, and I100 is the total dequenched calcein at neutral pH."}, "ER glucosidases I and II": {"system": "ER glucosidases I and II", "experiment": "Free oligosaccharide (FOS) analysis as marker of glucosidase inhibition", "type": "cell-based, Chinese hamster", "source_text": "Free oligosaccharides (FOS) produced in the presence of free or DCPP liposomes encapsulating NB-DNJ are characterized and used as a cellular marker for glucosidase inhibition to measure the enhancement of drug activity due to intracellular delivery. […] In this experiment, the distribution of glucosylated FOS is used as a measure of glucosidase inhibition by NB-DNJ, where Glc1Mann-FOS and Glc2Mann-FOS species are a result of glucosidase II inhibition, and Glc3Mann-FOS a result of glucosidase I inhibition.\nCHO cells were incubated in the presence of free NB-DNJ at the antiviral concentration of 0.5 mM, or with 100 μM of DCPP liposomes encapsulating NB-DNJ at final concentrations ranging 0-75 nM. Cells were left to incubate for 5 days and isolation of FOS was performed using cell homogenates standardized to 500 μg of total protein as described by Mellor et al (2004). Biochem J. 2004 Aug. 1; 381 (Pt 3): 861-866. Detection of FOS was performed by normal-phase HPLC following labeling of oligosaccharides by 2-aminobenzamide. The compositions of FOS were further characterized and determined by digestions with glycosidases including endoglycosidase H, jack bean α-mannosidase, and α-glucosidases I and II. The percentage of non-glucosylated and glucosylated oligomannose FOS (represented by Mann-FOS, Glc1Mann-FOS, Glc2Mann-FOS, and Glc3Mann-FOS) was calculated for each sample, and results are represented in Table 2. Results represent the mean±S.D. of four separate experiments."}, "cp BVDV": {"system": "cp BVDV", "experiment": "Yield reduction (plaque) assay", "type": "cell-based, bovine viral diarrhea virus", "details": "for IC50: Bovine viral diarrhea virus isolates and strains, read-out: IC50, secretion of infectious BVDV", "experimental": "The antiviral effect of liposome-included NB-DNJ was also tested against the cp BVDV, using the yield reduction assay, a method which takes advantage of the cp strain being able to form plaques on monolayers of infected cells.\nFIG. 7 represents the effect of free vs. DC liposome-encapsulated NB-DNJ, on secretion of infectious cp BVDV. MDBK cells infected with cp BVDV were treated for 3 days with either free or DC liposome-NB-DNJ, so that the final NB-DNJ concentrations ranged between 0 and 500 μM and the total lipid concentration was 100 μM. The supernatants were then removed and used to infect fresh MDBK monolayers in six-well plates. After 3 days the plaques were counted under the microscope (plaque assay) and the results were expressed as a percentage of the number of plaques resulting from infection with no drug supernatant (=100%) (x axis). The y axis indicates the free or DC liposome-included NB-DNJ concentrations used in the plaque assay. The IC50 is indicated at the bottom of the graph."}, "ncp BVDV [2]": {"system": "ncp BVDV", "experiment": "Infectivity of secreted ncp BVDV on naive MDBK cells, immunofluorescence", "type": "cell-based, bovine viral diarrhea virus", "experimental": "Using BVDV viral particles collected from the previous experiment (500 μl of supernatant containing secreted BVDV), the infectivity of secreted NB-DNJ-treated BVDV was determined by incubation with naïve MDBK cells for 3 days followed by immunofluorescent staining to identify BVDV proteins in infected cells. Cells were stained post-infection using an anti-BVDV NS2-NS3 monoclonal antibody, followed by a FITC-labelled secondary antibody. Experiments were performed in duplicate using 6-well plates. The percent viral infectivity was calculated by the number of infected cells, identified by the presence of non-structural BVDV proteins, divided by the total cell count determined by DAPI staining of cell nuclei. Results were also normalized to account for decreased or increased viral titres in each sample (results from BVDV secretion experiments)."}, "ncp BVDV [3]": {"system": "ncp BVDV", "experiment": "BVDV secretion from infected MDBK cells, real-time PCR", "type": "cell-based, bovine viral diarrhea virus", "details": "750 nM, 3 days", "experimental": "In a first study using the ncp strain of BVDV, NB-DNJ was added freely to the culture medium, so that final concentrations ranged between 0 and 750 nM. In separate incubations, NB-DNJ DCPP liposomes were added so that the final lipid concentration was 50 μM and final concentrations of NB-DNJ ranged between 0 and 750 nM. Experiments were carried out in duplicate in 6-well plates. The quantity of secreted BVDV viral particles was measured following 3 days of incubation. Virus secretion analysis was performed by quantitative PCR (real-time PCR) on viral RNA extracted from 500 μl of supernatant. Real-time PCR used primers directed against the ncp BVDV RNA where the forward primer sequence was […] (SEQ ID NO:1), and the reverse primer sequence was […] (SEQ ID NO:2). Results are expressed as the percentage of RNA copies present in treated samples as compared to the untreated control (=100% on the x axis)."}}, "note": "Where two headings read alike, the source gives them in different places."}
{"smiles": "CCCCN1C[C@H](O)[C@@H](O)[C@H](O)[C@H]1CO", "note": "[NB-DNJ, N-butyl-1,5-dideoxy-1,5-imino-D-glucitol]", "values": [{"measurement": "pH sensitivity / stability of DCPP liposomes", "setting": "[1]", "result": "significant decrease in pH sensitivity"}, {"measurement": "Distribution of total FOS Glc0Mann", "setting": "ER glucosidases I and II; 0.75 pM in liposomes", "result": "70.7 ± 5.4", "unit": "%"}, {"measurement": "Distribution of total FOS Glc1Mann", "setting": "ER glucosidases I and II; 0.75 pM in liposomes", "result": "18.7 ± 3.7", "unit": "%"}, {"measurement": "Distribution of total FOS Glc2Mann", "setting": "ER glucosidases I and II; 0.75 pM in liposomes", "result": "7.7 ± 1.1", "unit": "%"}, {"measurement": "Distribution of total FOS Glc3Mann", "setting": "ER glucosidases I and II; 0.75 pM in liposomes", "result": "2.9 ± 0.9", "unit": "%"}, {"measurement": "Distribution of total FOS Glc0Mann", "setting": "ER glucosidases I and II; 7.5 pM in liposomes", "result": "70.4 ± 4.2", "unit": "%"}, {"measurement": "Distribution of total FOS Glc1Mann", "setting": "ER glucosidases I and II; 7.5 pM in liposomes", "result": "17.7 ± 1.3", "unit": "%"}, {"measurement": "Distribution of total FOS Glc2Mann", "setting": "ER glucosidases I and II; 7.5 pM in liposomes", "result": "8.3 ± 2.1", "unit": "%"}, {"measurement": "Distribution of total FOS Glc3Mann", "setting": "ER glucosidases I and II; 7.5 pM in liposomes", "result": "3.6 ± 1.3", "unit": "%"}, {"measurement": "Distribution of total FOS Glc0Mann", "setting": "ER glucosidases I and II; 75 pM in liposomes", "result": "51.7 ± 4.7", "unit": "%"}, {"measurement": "Distribution of total FOS Glc1Mann", "setting": "ER glucosidases I and II; 75 pM in liposomes", "result": "38.6 ± 4.1", "unit": "%"}, {"measurement": "Distribution of total FOS Glc2Mann", "setting": "ER glucosidases I and II; 75 pM in liposomes", "result": "5.3 ± 1.8", "unit": "%"}, {"measurement": "Distribution of total FOS Glc3Mann", "setting": "ER glucosidases I and II; 75 pM in liposomes", "result": "4.4 ± 2.8", "unit": "%"}, {"measurement": "Distribution of total FOS Glc0Mann", "setting": "ER glucosidases I and II; 0.75 nM in liposomes", "result": "20.4 ± 2.7", "unit": "%"}, {"measurement": "Distribution of total FOS Glc1Mann", "setting": "ER glucosidases I and II; 0.75 nM in liposomes", "result": "66.9 ± 5.1", "unit": "%"}, {"measurement": "Distribution of total FOS Glc2Mann", "setting": "ER glucosidases I and II; 0.75 nM in liposomes", "result": "7.4 ± 3.3", "unit": "%"}, {"measurement": "Distribution of total FOS Glc3Mann", "setting": "ER glucosidases I and II; 0.75 nM in liposomes", "result": "5.3 ± 2.9", "unit": "%"}, {"measurement": "Distribution of total FOS Glc0Mann", "setting": "ER glucosidases I and II; 7.5 nM in liposomes", "result": "12.7 ± 2.6", "unit": "%"}, {"measurement": "Distribution of total FOS Glc1Mann", "setting": "ER glucosidases I and II; 7.5 nM in liposomes", "result": "50.0 ± 4.8", "unit": "%"}, {"measurement": "Distribution of total FOS Glc2Mann", "setting": "ER glucosidases I and II; 7.5 nM in liposomes", "result": "28.6 ± 2.7", "unit": "%"}, {"measurement": "Distribution of total FOS Glc3Mann", "setting": "ER glucosidases I and II; 7.5 nM in liposomes", "result": "8.7 ± 1.7", "unit": "%"}, {"measurement": "Distribution of total FOS Glc0Mann", "setting": "ER glucosidases I and II; 75 nM in liposomes", "result": "13.2 ± 4.1", "unit": "%"}, {"measurement": "Distribution of total FOS Glc1Mann", "setting": "ER glucosidases I and II; 75 nM in liposomes", "result": "7.9 ± 2.8", "unit": "%"}, {"measurement": "Distribution of total FOS Glc2Mann", "setting": "ER glucosidases I and II; 75 nM in liposomes", "result": "26.6 ± 4.5", "unit": "%"}, {"measurement": "Distribution of total FOS Glc3Mann", "setting": "ER glucosidases I and II; 75 nM in liposomes", "result": "52.3 ± 6.2", "unit": "%"}, {"measurement": "Distribution of total FOS Glc0Mann", "setting": "ER glucosidases I and II; 0.5 mM free", "result": "11.9 ± 1.9", "unit": "%"}, {"measurement": "Distribution of total FOS Glc1Mann", "setting": "ER glucosidases I and II; 0.5 mM free", "result": "9.5 ± 0.9", "unit": "%"}, {"measurement": "Distribution of total FOS Glc2Mann", "setting": "ER glucosidases I and II; 0.5 mM free", "result": "31.7 ± 4.5", "unit": "%"}, {"measurement": "Distribution of total FOS Glc3Mann", "setting": "ER glucosidases I and II; 0.5 mM free", "result": "46.9 ± 4.8", "unit": "%"}, {"measurement": "better inhibition, DC liposomes vs free", "setting": "cp BVDV", "result": 8, "unit": "fold"}, {"measurement": "IC50", "setting": "cp BVDV; free drug", "result": 175, "unit": "µM"}, {"measurement": "IC50", "setting": "cp BVDV; included in DC liposomes, total lipid 100 μM", "result": 20, "unit": "µM"}, {"measurement": "effect on BVDV infectivity", "setting": "ncp BVDV [2]; 750 nM added freely to the medium", "result": "little to no effect"}, {"measurement": "naive MDBK cells infected by viral progeny", "setting": "ncp BVDV [2]; 750 nM delivered via DCPP liposomes", "result": "less than 1%"}, {"measurement": "antiviral effect vs controls", "setting": "ncp BVDV [2]; 750 nM in DCPP liposomes", "result": "over 20 fold"}, {"measurement": "naive MDBK cells infected by viral progeny", "setting": "ncp BVDV [2]; free, up to 750 nM", "result": "approximately 20%"}, {"measurement": "decrease in number of secreted viral particles", "setting": "ncp BVDV [3]; DCPP liposome-mediated delivery", "result": 2, "unit": "fold"}, {"measurement": "effect on number of secreted viral particles", "setting": "ncp BVDV [3]; free delivery", "result": "no effect"}]}
